In patent US20130196984A1, “3-AMINO-5-PHENYL-56-DIHYDRO-2H-[1,4]OXAZINES” (Siena Biotech S.p.A., priority 2009, published 2013):
Where a name gives a salt, the structure may show the parent alone.

Columns and labels:
BACE2 [1] = molecular target: T1, BACE2 (Homo sapiens, UniProt Q9Y5Z0); test: Assay A: binding studies using SPR based methods, immobilised BACE2; details: CM5 chip, immobilised BACE2 enzyme ectodomain, acetate buffer pH 4.6, 4% DMSO
T1 construct: BACE2 enzyme ectodomain (derived from plasmid “pET17b-T7-hu proBACE2”); T7 (N); made in house
T1 sequence (Q9Y5Z0 63-473 limits assumed): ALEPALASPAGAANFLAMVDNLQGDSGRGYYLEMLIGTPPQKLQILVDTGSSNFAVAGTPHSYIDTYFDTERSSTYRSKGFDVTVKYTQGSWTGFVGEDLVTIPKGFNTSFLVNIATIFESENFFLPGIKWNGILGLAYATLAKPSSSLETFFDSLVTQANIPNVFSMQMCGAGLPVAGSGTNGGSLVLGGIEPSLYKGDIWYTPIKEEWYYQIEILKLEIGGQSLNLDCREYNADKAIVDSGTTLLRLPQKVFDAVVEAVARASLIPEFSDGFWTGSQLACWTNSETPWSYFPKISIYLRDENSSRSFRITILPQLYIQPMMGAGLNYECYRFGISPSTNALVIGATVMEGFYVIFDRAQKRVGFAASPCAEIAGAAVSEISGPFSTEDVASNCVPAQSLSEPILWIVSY

BACE2 [2] = molecular target: T2, BACE2 (Rattus norvegicus, UniProt Q6IE75); test: Assay for BACE inhibition by measuring cellular TMEM27 cleavage; assay type: cell-based; details: INS-TMEM27 (INS1e-derived) cells, ELISA of shed human TMEM27 in supernatant;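 note: inhibitor added 2 h before doxycycline-induced hTMEM27 expression, supernatant collected after further 46 h, endogenous BACE2 activity read as reduced TMEM27 shedding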
T2 construct: endogenous cellular BACE2 in the Ins1e rat cell line; endogenous in cells; host or cells: INS-TMEM27 (INS1e-derived rat cell line with doxycycline-inducible full-length hTMEM27)
T2 sequence (Q6IE75 63-514): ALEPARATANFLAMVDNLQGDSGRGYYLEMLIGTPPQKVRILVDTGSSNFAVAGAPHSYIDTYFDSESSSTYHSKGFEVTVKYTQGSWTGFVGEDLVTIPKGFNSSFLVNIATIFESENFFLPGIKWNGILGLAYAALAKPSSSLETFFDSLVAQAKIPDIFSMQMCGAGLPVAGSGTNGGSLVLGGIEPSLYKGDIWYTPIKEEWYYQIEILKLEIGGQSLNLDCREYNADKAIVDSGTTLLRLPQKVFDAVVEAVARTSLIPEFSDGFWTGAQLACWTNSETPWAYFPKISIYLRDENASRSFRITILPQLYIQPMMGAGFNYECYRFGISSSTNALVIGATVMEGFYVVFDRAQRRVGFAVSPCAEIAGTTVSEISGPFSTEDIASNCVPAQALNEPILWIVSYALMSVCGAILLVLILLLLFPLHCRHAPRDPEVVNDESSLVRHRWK

BACE1 [3] = molecular target: T3, BACE1 (Homo sapiens, UniProt P56817); test: Cellular Abeta-lowering assay; assay type: cell-based; set-up: endogenous in cells; host or cells: HEK293 stably transfected with human APP695 wt; details: HEK293 cells stably transfected with human APP wt (APP695), Aβ40 ELISA of supernatant after 18-20 hrs
T3 sequence (P56817 46-501): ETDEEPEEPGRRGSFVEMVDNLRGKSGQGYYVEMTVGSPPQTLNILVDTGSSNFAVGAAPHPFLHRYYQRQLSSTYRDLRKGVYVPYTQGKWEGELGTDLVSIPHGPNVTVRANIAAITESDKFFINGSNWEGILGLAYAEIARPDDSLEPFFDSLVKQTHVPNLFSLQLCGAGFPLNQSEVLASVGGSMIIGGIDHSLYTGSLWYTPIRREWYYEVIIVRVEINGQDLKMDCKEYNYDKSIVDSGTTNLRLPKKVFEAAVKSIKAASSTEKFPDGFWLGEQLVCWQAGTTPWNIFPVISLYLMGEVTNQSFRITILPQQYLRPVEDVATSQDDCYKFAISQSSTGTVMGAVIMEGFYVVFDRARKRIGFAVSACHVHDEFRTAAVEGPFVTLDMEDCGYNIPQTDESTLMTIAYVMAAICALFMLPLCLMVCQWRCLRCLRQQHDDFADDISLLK

BACE1 [4] = molecular target: T3, BACE1; test: Assay A: binding studies using SPR based methods, immobilised BACE1; set-up: 6his-tagged full length BACE 1 expressed in SF9 cells; 6His; made in house; host or cells: SF9 insect cells; details: CM5 chip, immobilised 6his-tagged full length BACE 1, acetate buffer pH 4.6, 4% DMSO;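 note: KD from a 1:1 kinetic fit (koff/kon) of real-time association and dissociation curves, or for fast binders from end-of-association equilibrium responses plotted against log concentration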

Which Kd (BACE2 [1]) does the source give for C[C@@]1(c2cc(NC(=O)c3ccc(OC(F)F)cn3)ccc2F)COCC(N)=N1 [Example 73, 5-difluoromethoxy-pyridine-2-carboxylic acid [3-((R)-5-amino-3-methyl-3,6-dihydro-2H-[1,4]oxazin-3-yl)-4-fluoro-phenyl]-amide hydrochloride] here?
Its Kd is 51 nM.

What about the IC50 (BACE2 [2]) of the same molecule?
The IC50 was 105 nM.

What about the IC50 (BACE1 [3]) of the same molecule?
The IC50 was 4 nM.

What about the Kd (BACE1 [4]) of the same molecule?
Its Kd is 9 nM.

How did the Kd (BACE2 [1]) turn out when C[C@@]1(c2cc(NC(=O)c3ncc(Cl)cc3F)ccc2F)COCC(N)=N1 [Example 74, 5-Chloro-3-fluoro-pyridine-2-carboxylic acid [3-((R)-5-amino-3-methyl-3,6-dihydro-2H-[1,4]oxazin-3-yl)-4-fluoro-phenyl]-amide hydrochloride] was run?
The Kd was 2 nM.

What about the IC50 (BACE2 [2]) of the same molecule?
Its IC50 is 1350 nM.

What about the IC50 (BACE1 [3]) of the same molecule?
Its IC50 is 4 nM.

And the Kd (BACE1 [4])?
Its Kd is 10 nM.

What does the source list for C[C@@]1(c2cc(NC(=O)c3ncco3)ccc2F)COCC(N)=N1 [Example 80, oxazole-2-carboxylic acid [3-((R)-5-amino-3-methyl-3,6-dihydro-2H-[1,4]oxazin-3-yl)-4-fluoro-phenyl]-amide]?
Kd (BACE2 [1]): 45 nM; IC50 (BACE2 [2]): 84 nM; IC50 (BACE1 [3]): 700 nM; Kd (BACE1 [4]): 2270 nM

What does the source list for C[C@@]1(c2cc(NC(=O)c3cnc(C(F)(F)F)cn3)ccc2F)COCC(N)=N1 [Example 81, 5-trifluoromethyl-pyrazine-2-carboxylic acid [3-((R)-5-amino-3-methyl-3,6-dihydro-2H-[1,4]oxazin-3-yl)-4-fluoro-phenyl]-amide formate]?
Kd (BACE2 [1]): 256 nM; IC50 (BACE2 [2]): 210 nM; IC50 (BACE1 [3]): 47 nM; Kd (BACE1 [4]): 102 nM

With C[C@@]1(c2cc(NC(=O)c3cnc(C(F)(F)F)cn3)ccc2F)COCC(N)=N1 [Example 82, 5-trifluoromethyl-pyrazine-2-carboxylic acid [3-((R)-5-amino-3-methyl-3,6-dihydro-2H-[1,4]oxazin-3-yl)-4-fluoro-phenyl]-amide formate] as the molecule, how does the Kd (BACE2 [1]) read?
The Kd was 113 nM.

And the IC50 (BACE2 [2])?
Its IC50 is 140 nM.

And the IC50 (BACE1 [3])?
Its IC50 is 46 nM.

And the Kd (BACE1 [4])?
Its Kd is 129 nM.

Which Kd (BACE2 [1]) does the source give for C[C@@]1(c2cc(NC(=O)C(F)(F)C(F)F)ccc2F)COCC(N)=N1 [Example 83, N-[3-((R)-5-amino-3-methyl-3,6-dihydro-2H-[1,4]oxazin-3-yl)-4-fluoro-phenyl]-2,2,3,3-tetrafluoro-propionamide formate] here?
Its Kd is 276 nM.

What about the IC50 (BACE2 [2]) of the same molecule?
The IC50 was 130 nM.

What about the IC50 (BACE1 [3]) of the same molecule?
The IC50 was 300 nM.

And the Kd (BACE1 [4])?
The Kd was 916 nM.

Which results are given for COCC(=O)Nc1ccc(F)c([C@]2(C)COCC(N)=N2)c1 [Example 84, N-[3-((R)-5-amino-3-methyl-3,6-dihydro-2H-[1,4]oxazin-3-yl)-4-fluoro-phenyl]-2-methoxy-acetamide formate]?
Kd (BACE2 [1]): 77 nM; IC50 (BACE2 [2]): 83 nM; IC50 (BACE1 [3]): 140 nM; Kd (BACE1 [4]): 261 nM

CC(C)C(=O)Nc1ccc(F)c([C@]2(C)COCC(N)=N2)c1 [Example 88, N-[3-((R)-5-amino-3-methyl-3,6-dihydro-2H-[1,4]oxazin-3-yl)-4-fluoro-phenyl]-isobutyramide formate] was tested. Which Kd (BACE2 [1]) did it give?
The Kd was 3450 nM.

And the IC50 (BACE2 [2])?
Its IC50 is 560 nM.

What about the IC50 (BACE1 [3]) of the same molecule?
The IC50 was 2760 nM.

And the Kd (BACE1 [4])?
Its Kd is over 10000 nM.

What does the source list for CC(F)(F)C(=O)Nc1ccc(F)c([C@]2(C)COCC(N)=N2)c1 [Example 90, N-[3-((R)-5-amino-3-methyl-3,6-dihydro-2H-[1,4]oxazin-3-yl)-4-fluoro-phenyl]-2,2-difluoro-propionamide formate]?
Kd (BACE2 [1]): 150 nM; IC50 (BACE2 [2]): 1220 nM; IC50 (BACE1 [3]): 220 nM; Kd (BACE1 [4]): 148 nM

C[C@@]1(c2cc(NC(=O)C(F)F)ccc2F)COCC(N)=N1 [Example 91, N-[3-((R)-5-amino-3-methyl-3,6-dihydro-2H-[1,4]oxazin-3-yl)-4-fluoro-phenyl]-2,2-difluoro-acetamide formate] was tested. Which Kd (BACE2 [1]) did it give?
Its Kd is 1140 nM.

And the IC50 (BACE2 [2])?
Its IC50 is 95 nM.

And the IC50 (BACE1 [3])?
The IC50 was 1460 nM.

What about the Kd (BACE1 [4]) of the same molecule?
The Kd was 994 nM.

What does the source list for CC(C)(F)C(=O)Nc1ccc(F)c([C@]2(C)COCC(N)=N2)c1 [Example 92, N-[3-((R)-5-amino-3-methyl-3,6-dihydro-2H-[1,4]oxazin-3-yl)-4-fluoro-phenyl]-2-fluoro-2-methyl-propionamide formate]?
Kd (BACE2 [1]): 1070 nM; IC50 (BACE2 [2]): 1090 nM; IC50 (BACE1 [3]): 400 nM; Kd (BACE1 [4]): 2220 nM

How did the Kd (BACE2 [1]) turn out when CC(=O)Nc1ccc(F)c([C@]2(C)COCC(N)=N2)c1 [Example 93, N-[3-((R)-5-amino-3-methyl-3,6-dihydro-2H-[1,4]oxazin-3-yl)-4-fluoro-phenyl]-acetamide formate] was run?
Its Kd is 3850 nM.

What about the IC50 (BACE2 [2]) of the same molecule?
Its IC50 is 3390 nM.

And the IC50 (BACE1 [3])?
The IC50 was 6820 nM.

What about the Kd (BACE1 [4]) of the same molecule?
The Kd was over 10000 nM.

Which results are given for CCC(=O)Nc1ccc(F)c([C@]2(C)COCC(N)=N2)c1 [Example 94, N-[3-((R)-5-amino-3-methyl-3,6-dihydro-2H-[1,4]oxazin-3-yl)-4-fluoro-phenyl]-propionamide formate]?
Kd (BACE2 [1]): 1950 nM; IC50 (BACE2 [2]): 1080 nM; IC50 (BACE1 [3]): 1400 nM; Kd (BACE1 [4]): 2700 nM

Which results are given for Cc1cc(Cl)cnc1C(=O)Nc1ccc(F)c([C@]2(C)COCC(N)=N2)c1 [Example 98, 5-chloro-3-methyl-pyridine-2-carboxylic acid [3-((R)-5-amino-3-methyl-3,6-dihydro-2H-[1,4]oxazin-3-yl)-4-fluoro-phenyl]-amide]?
Kd (BACE2 [1]): 4 nM; IC50 (BACE2 [2]): 1 nM; IC50 (BACE1 [3]): 7 nM; Kd (BACE1 [4]): 14 nM

Which Kd (BACE2 [1]) does the source give for C[C@@]1(c2cc(NC(=O)c3ccc(F)cn3)ccc2F)COCC(N)=N1 [Example 99, 5-fluoro-pyridine-2-carboxylic acid [3-((R)-5-amino-3-methyl-3,6-dihydro-2H-[1,4]oxazin-3-yl)-4-fluoro-phenyl]-amide] here?
Its Kd is 8 nM.

And the IC50 (BACE2 [2])?
Its IC50 is 3 nM.

What about the IC50 (BACE1 [3]) of the same molecule?
The IC50 was 17 nM.

What about the Kd (BACE1 [4]) of the same molecule?
The Kd was 46 nM.
